Assay: xn = mol fraction of the nth substance listed
Conditions: 100 kPa, Liquid, Vibrating tube method

OCCCCCO [1,5-pentanediol] + O
mass density [kg/m3]
Conditions	318.15 K	323.15 K	328.15 K	333.15 K
x1 = 0.005	–	987.42	985.03	982.48
x1 = 0.0101	–	987.12	984.7	982.09
x1 = 0.0196	–	986.93	984.4	981.69
x1 = 0.0251	–	987.06	984.49	981.7
x1 = 0.0304	–	987.26	984.6	981.74
x1 = 0.05	–	987.48	984.62	981.63
x1 = 0.0769	–	987.42	984.36	981.19
x1 = 0.1002	–	987.52	984.33	981.04
x1 = 0.1438	–	987.17	983.84	980.43
x1 = 0.1845	–	986.36	982.94	979.44
x1 = 0.2503	–	985.12	981.66	978.15
x1 = 0.3	–	983.93	980.46	976.99
x1 = 0.3343	–	983.17	979.7	976.21
x1 = 0.4171	–	981.65	978.26	974.8
x1 = 0.454	–	980.83	977.43	973.98
x1 = 0.5003	–	980	976.6	973.2
x1 = 0.5362	–	979.3	976	972.6
x1 = 0.6177	–	978	974.8	971.5
x1 = 0.6478	–	977.5	974.3	971
x1 = 0.7025	–	976.7	973.6	970.3
x1 = 0.7504	–	976.1	972.9	969.7
x1 = 0.7927	–	975.4	972.3	969.1
x1 = 0.8605	–	974.4	971.3	968.1
x1 = 0.9004	–	973.7	970.7	967.6
x1 = 0.9496	975.8	972.8	969.9	966.7
x1 = 1	974.9	971.9	969	965.9
